Laboratory results published in patent publication US20220389009A1, “SUBSTITUTED 1,6-NAPHTHYRIDINE INHIBITORS OF CDK5” (Goldfinch Bio, Inc., priority 2019, published 2022).

Assays:
CDK5/p25 = CDK5/p25 (Homo sapiens, UniProt Q00535); test: CDK5 mobility shift assay (enzymatic activity of CDK5/p25); format: biochemical; conditions: for IC50: 0.154 nM CDK5/p25, FL peptide 29, 60 min at room temperature, read-out: CDK5 IC50; for CDK5/CDK2 specificity: fold more active against CDK5 than CDK2
Summary of the method: (§1)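 Carna CDK5/p25 (0.154 nM) or CDK2/CycA2 (1.25 nM) was preincubated 30 min with compound, ATP ([…] for CDK5; 37 μM for CDK2) and 10 mM MgCl2 in HEPES pH 7.5. The reaction was started with 1.5 μM FL peptide (29 for CDK5, 18 for CDK2) and run 60 min (CDK5) or 120 min (CDK2) at room temperature. Product was read by mobility shift, with IC50 from a 4-parameter fit.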

CDK2/CycA2 = CDK2/CycA2 (Homo sapiens, UniProt P24941); test: CDK2 mobility shift assay (enzymatic activity of CDK2/CycA2); format: biochemical; conditions: 1.25 nM CDK2/CycA2, 37 μM ATP, FL Peptide 18, 120 min at room temperature; read-out: CDK2 IC50
Summary of the method: as §1

CDK5/p25, sequence (Q00535 whole entry): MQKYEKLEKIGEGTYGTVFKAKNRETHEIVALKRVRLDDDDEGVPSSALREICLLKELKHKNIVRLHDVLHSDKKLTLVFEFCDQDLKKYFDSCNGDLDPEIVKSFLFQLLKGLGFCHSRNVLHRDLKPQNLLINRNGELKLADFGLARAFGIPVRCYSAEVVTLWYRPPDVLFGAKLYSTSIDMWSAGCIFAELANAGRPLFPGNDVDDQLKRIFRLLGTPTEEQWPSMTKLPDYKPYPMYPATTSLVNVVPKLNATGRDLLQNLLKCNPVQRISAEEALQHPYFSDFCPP
CDK5/p25, sequence (Q15078 99-307 partner limits assumed): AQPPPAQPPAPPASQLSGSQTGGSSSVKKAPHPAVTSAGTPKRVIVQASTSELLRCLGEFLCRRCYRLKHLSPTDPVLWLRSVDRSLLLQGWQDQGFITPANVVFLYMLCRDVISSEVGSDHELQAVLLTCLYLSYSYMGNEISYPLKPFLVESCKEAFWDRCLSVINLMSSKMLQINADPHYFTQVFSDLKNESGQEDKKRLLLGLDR

Row | IC50 (CDK5/p25) [nM] | IC50 (CDK2/CycA2) [nM] | SMILES | CDK5/CDK2 specificity (CDK5/p25)
1 | 100 to 1000 | > 1000 | O=S(=O)(Cc1ccc2cnc(Nc3ccc(-n4ccc(CO)n4)cc3F)cc2n1)C1CCNCC1 [Compound 207, [1-[3-fluoro-4-([2-[(piperidine-4-sulfonyl)methyl]-1,6-naphthyridin-7-yl]amino)phenyl]pyrazol-3-yl]methanol] | + (10-fold or less more active against CDK5 than CDK2)
2 | < 10 | 100 to 1000 | CNC(=O)c1ccn(-c2ccc(Nc3cc4nc(S(=O)(=O)C5CCN(CC6COC6)CC5)ccc4cn3)c(F)c2)n1 [Compound 334] | ++ (greater than 10-fold and less than or equal to 100-fold more active against CDK5 than CDK2)
3 | 100 to 1000 | > 1000 | CN1CCC(C(O)(c2ccc3cnc(Nc4ccc(-n5cccn5)cc4F)cc3n2)C(F)(F)F)CC1 (single isomer, unassigned) [Compound 343, 2,2,2-trifluoro-1-(7-((2-fluoro-4-(1H-pyrazol-1-yl)phenyl)amino)-1,6-naphthyridin-2-yl)-1-(1-methylpiperidin-4-yl)ethan-1-ol] | ++ (greater than 10-fold and less than or equal to 100-fold more active against CDK5 than CDK2)
4 | 100 to 1000 | > 1000 | CN1CCC2(CC1)CC2c1ccc2cnc(Nc3ccc(-n4cccn4)cc3F)cc2n1 (stereo not drawn) [Compound 164, N-[2-fluoro-4-(pyrazol-1-yl)phenyl]-2-[6-methyl-6-azaspiro[2.5]octan-1-yl]-1,6-naphthyridin-7-amine] | ++ (greater than 10-fold and less than or equal to 100-fold more active against CDK5 than CDK2)
5 | < 10 | 10 to 100 | O=C(c1ccc2cnc(Nc3ccc(-n4cccn4)cc3F)cc2n1)C1CCNCC1 [Compound 141, N-[2-fluoro-4-(pyrazol-1-yl)phenyl]-2-(piperidine-4-carbonyl)-1,6-naphthyridin-7-amine] | ++ (greater than 10-fold and less than or equal to 100-fold more active against CDK5 than CDK2)
6 | < 10 | 10 to 100 | NC(=O)c1cccc(Nc2cc3nc(SC4CCNCC4)ccc3cn2)c1 [Compound 134, 3-[[2-(piperidin-4-ylsulfanyl)-1,6-naphthyridin-7-yl]amino]benzamide] | ++ (greater than 10-fold and less than or equal to 100-fold more active against CDK5 than CDK2)
7 | 100 to 1000 | > 1000 | CN1CCC(C(C)(O)c2ccc3cnc(Nc4ccc(-c5cccc(C#N)c5)cc4F)cc3n2)CC1 (stereo not drawn) [Compound 337] | ++ (greater than 10-fold and less than or equal to 100-fold more active against CDK5 than CDK2)
8 | 10 to 100 | > 1000 | OC(c1ccc2cnc(Nc3ccc(-n4cccn4)cc3F)cc2n1)C1CCNCC1 (stereo not drawn) [Compound 149, (7-[[2-fluoro-4-(pyrazol-1-yl)phenyl]amino]-1,6-naphthyridin-2-yl) (piperidin-4-yl)methanol] | ++ (greater than 10-fold and less than or equal to 100-fold more active against CDK5 than CDK2)
9 | < 10 | 100 to 1000 | CN1CCC(C(C)(O)c2ccc3cnc(Nc4ccc(-n5ccc(C#N)n5)cc4F)cc3n2)CC1 (stereo not drawn) [Compound 371] | ++ (greater than 10-fold and less than or equal to 100-fold more active against CDK5 than CDK2)
10 | < 10 | 100 to 1000 | CN1CCC(S(=O)(=O)c2ccc3cnc(Nc4ccc5c(c4)C(=O)NCC5)cc3n2)CC1 [Compound 278] | ++ (greater than 10-fold and less than or equal to 100-fold more active against CDK5 than CDK2)
11 | 100 to 1000 | > 1000 | CN1CCC(C(C)(O)c2ccc3cnc(Nc4ccc(-n5cccn5)cc4F)cc3n2)CC1 (single isomer, unassigned) [Compound 205, 1-(7-[[2-fluoro-4-(pyrazol-1-yl)phenyl]amino]-1,6-naphthyridin-2-yl)-1-(1-methylpiperidin-4-yl)ethanol] | ++ (greater than 10-fold and less than or equal to 100-fold more active against CDK5 than CDK2)
12 | 100 to 1000 | > 1000 | OCCN1CCC(C(O)c2ccc3cnc(Nc4ccc(-n5ccc(CO)n5)cc4F)cc3n2)CC1 (single isomer, unassigned) [Compound 255, 2-(4-[[7-([2-fluoro-4-[3-(hydroxymethyl)pyrazol-1-yl]phenyl]amino)-1,6-naphthyridin-2-yl](hydroxy)methyl]piperidin-1-yl)ethanol] | ++ (greater than 10-fold and less than or equal to 100-fold more active against CDK5 than CDK2)
13 | < 10 | 100 to 1000 | CN1CCC(S(=O)(=O)c2ccc3cnc(Nc4ccc(N5CCN(C)CC5)cc4)cc3n2)CC1 [Compound 270] | ++ (greater than 10-fold and less than or equal to 100-fold more active against CDK5 than CDK2)

More lines, now with the values behind:

Row | SMILES | IC50 (CDK5/p25) [nM] | IC50 (CDK2/CycA2) [nM] | CDK5/CDK2 specificity (CDK5/p25)
14 | CNC(=O)c1ccc(Nc2cc3nc(S(=O)(=O)C4CCN(C)CC4)ccc3cn2)cc1 [Compound 268] | < 10 | 100 to 1000 | ++ (greater than 10-fold and less than or equal to 100-fold more active against CDK5 than CDK2)
15 | CC(c1ccc2cnc(Nc3ccc(-c4cccnc4)cc3F)cc2n1)C1CCN(C)CC1 (stereo not drawn) [Compound 319] | < 10 | 100 to 1000 | ++ (greater than 10-fold and less than or equal to 100-fold more active against CDK5 than CDK2)
16 | Cc1ccccc1Nc1cc2nc(S(=O)(=O)C3CCN(C)CC3)ccc2cn1 [Compound 297] | < 10 | 100 to 1000 | +++ (greater than 100-fold more active against CDK5 than CDK2)
17 | Cc1ccc(F)c(Nc2cc3nc(C(O)(C4CCN(C)CC4)C(F)(F)F)ccc3cn2)c1 (stereo not drawn) [Compound 390] | 100 to 1000 | > 1000 | ++ (greater than 10-fold and less than or equal to 100-fold more active against CDK5 than CDK2)
18 | NC1CCCN(C(=O)c2ccc3cnc(Nc4ccc(-n5cccn5)cc4F)cc3n2)C1 (stereo not drawn) [Compound 242, 2-(3-aminopiperidine-1-carbonyl)-N-[2-fluoro-4-(pyrazol-1-yl)phenyl]-1,6-naphthyridin-7-amine] | 100 to 1000 | > 1000 | ++ (greater than 10-fold and less than or equal to 100-fold more active against CDK5 than CDK2)
19 | CN1CCC(C(O)c2ccc3cnc(Nc4ccc(-n5ccc(CO)n5)cc4F)cc3n2)CC1 (single isomer, unassigned) [Compound 247, [7-([2-fluoro-4-[3-(hydroxymethyl)pyrazol-1-yl]phenyl]amino)-1,6-naphthyridin-2-yl](1-methylpiperidin-4-yl)methanol] | 10 to 100 | > 1000 | ++ (greater than 10-fold and less than or equal to 100-fold more active against CDK5 than CDK2)
20 | OCCN(c1ccc2cnc(Nc3ccc(-n4nccc4CO)cc3F)cc2n1)C1CCNCC1 [Compound 103, 2-[[7-([2-fluoro-4-[5-(hydroxymethyl)pyrazol-1-yl]phenyl]amino)-1,6-naphthyridin-2-yl](piperidin-4-yl)amino]ethanol] | 10 to 100 | 100 to 1000 | ++ (greater than 10-fold and less than or equal to 100-fold more active against CDK5 than CDK2)
21 | CN1CCC(S(=O)(=O)c2ccc3cnc(Nc4ccc(-c5ncon5)cc4F)cc3n2)CC1 [Compound 376] | 100 to 1000 | 100 to 1000 | + (10-fold or less more active against CDK5 than CDK2)
22 | COc1cc(-c2ccc(Nc3cc4nc(C(C)(O)C5CCN(C)CC5)ccc4cn3)c(F)c2)ccn1 (stereo not drawn) [Compound 330] | > 1000 | > 1000 | ++ (greater than 10-fold and less than or equal to 100-fold more active against CDK5 than CDK2)
23 | CN1CCC(S(=O)(=O)c2ccc3cnc(Nc4ccc(N5CCCC5)cc4)cc3n2)CC1 [Compound 301] | < 10 | 100 to 1000 | +++ (greater than 100-fold more active against CDK5 than CDK2)
